Assay results reported in patent US20210060320A1, “TRANSDERMAL DRUG DELIVERY SYSTEM AND METHOD FOR USING SAME” (NICHIBAN CO., LTD., priority 2017, published 2021).

Conditions: pH 8
Description: Note that in the present invention, as an index of the “water solubility” in a “water-soluble drug” or a “water-soluble steroid”, a distribution coefficient (octanol/water distribution coefficient) can be employed. The distribution coefficient can be expressed by log D by taking into consideration of the influence of pH, and the water solubility is indicated by a minus value, while the liposolubility lipophilicity is indicated by a plus value.
The distribution coefficient can be obtained in accordance with the method described in JIS Z7260-107 or […].

dexamethasone metasulfobenzoate sodium
distribution coefficient (log D): −2

prednisolone sodium phosphate
distribution coefficient (log D): 0
